Earlier results, collected in US9180195B2, “Controlled release gels” (Nano Fiber Matrices B.V., priority 2005, dated 2015).

Conditions: for time to complete release from LMWG gel: from gels of N,N′-dibenzoyl-L-cystine (DBC)

Nc1cccc2cccnc12 [AQ, 8-aminoquinoline]
time to complete release from LMWG gel: ~1 h

Oc1ccc2ccccc2n1 [HQ, 2-hydroxyquinoline]
initial release rate relative to AQ (from gels of DBC): approximately seven
time to complete release from LMWG gel: approximately 15 min
